Laboratory results taken from US20240425491A1, “HETEROARYL COMPOUNDS USEFUL IN THE TREATMENT OF COGNITIVE DISORDERS” (University College Cardiff Consultants Limited, priority 2021, published 2024).

Legend:
[1] = target: T1, human recombinant GABAAR containing α5β3γ2 subunits (benzodiazepine site) (Homo sapiens, UniProt P18507+P31644); assay: In vitro radioligand binding assay (α5-GABAAR Ki); conditions: inhibition of [3H]Ro15-1788 binding, membranes of L(tk−) cells expressing human α5β3γ2; read-out: α5-GABAAR Ki
T1 construct: expressed in transfected cells; host or cells: mouse L(tk−) cells, dexamethasone-inducible vector pMSGneo
Method in brief: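 Membranes from mouse L(tk^−) cells stably expressing human α5β3γ2 GABAAR incubated 1 h at 4° C with 4 nM [^3H]Ro15-1788 and test compound; nonspecific binding with 1 μM TP003. Filter-bound radioactivity counted; Ki from IC50 by Cheng-Prusoff using measured Kd.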

[2] = target: T2, human α5β3γ2 GABAARs in mouse L(tk−) cells (Homo sapiens, UniProt P18507+P31644); assay: In vitro electrophysiological recording assay (α5-GABAAR relative efficacy), QPatch; type: cell-based; conditions: GABA EC10-20
T2 construct: expressed in transfected cells; host or cells: mouse L(tk−) cells, dexamethasone-inducible vector pMSGneo
Method in brief: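 Whole-cell QPatch recordings at 20-22° C, −65 mV holding, in dexamethasone-induced (1 μM, 24 h) L(tk−) cells. Compound pre-applied ≥1 min, then co-applied with GABA EC10-20; percentage change in leak-corrected peak current, taken at ≥100× Ki, normalised to DMCM efficacy; 0.1% DMSO final.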

T2 sequence (P31644 32-462): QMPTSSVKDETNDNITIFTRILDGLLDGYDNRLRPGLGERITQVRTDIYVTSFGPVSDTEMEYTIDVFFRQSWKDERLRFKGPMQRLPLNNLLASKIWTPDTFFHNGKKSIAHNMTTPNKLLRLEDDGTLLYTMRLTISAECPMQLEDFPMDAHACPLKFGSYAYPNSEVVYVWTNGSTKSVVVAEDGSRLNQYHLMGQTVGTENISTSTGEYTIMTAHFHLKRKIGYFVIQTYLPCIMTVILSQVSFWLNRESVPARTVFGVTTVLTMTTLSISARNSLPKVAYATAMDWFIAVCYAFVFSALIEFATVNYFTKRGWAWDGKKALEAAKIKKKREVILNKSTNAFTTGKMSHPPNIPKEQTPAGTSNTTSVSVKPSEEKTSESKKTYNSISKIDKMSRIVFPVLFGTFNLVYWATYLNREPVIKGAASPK
T2 sequence (P28472 26-473 partner): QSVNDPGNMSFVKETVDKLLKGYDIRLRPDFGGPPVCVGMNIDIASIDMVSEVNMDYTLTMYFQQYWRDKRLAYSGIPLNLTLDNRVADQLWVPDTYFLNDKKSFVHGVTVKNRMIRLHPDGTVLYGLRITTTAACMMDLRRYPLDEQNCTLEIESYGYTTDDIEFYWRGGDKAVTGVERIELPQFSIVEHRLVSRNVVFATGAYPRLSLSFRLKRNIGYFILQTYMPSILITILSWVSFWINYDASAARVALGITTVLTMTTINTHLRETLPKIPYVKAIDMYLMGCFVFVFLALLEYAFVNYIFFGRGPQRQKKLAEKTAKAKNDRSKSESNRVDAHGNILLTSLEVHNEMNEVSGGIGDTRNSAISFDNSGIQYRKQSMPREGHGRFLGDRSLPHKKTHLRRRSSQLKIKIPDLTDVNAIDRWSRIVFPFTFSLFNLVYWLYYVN
T2 sequence (P18507 40-475): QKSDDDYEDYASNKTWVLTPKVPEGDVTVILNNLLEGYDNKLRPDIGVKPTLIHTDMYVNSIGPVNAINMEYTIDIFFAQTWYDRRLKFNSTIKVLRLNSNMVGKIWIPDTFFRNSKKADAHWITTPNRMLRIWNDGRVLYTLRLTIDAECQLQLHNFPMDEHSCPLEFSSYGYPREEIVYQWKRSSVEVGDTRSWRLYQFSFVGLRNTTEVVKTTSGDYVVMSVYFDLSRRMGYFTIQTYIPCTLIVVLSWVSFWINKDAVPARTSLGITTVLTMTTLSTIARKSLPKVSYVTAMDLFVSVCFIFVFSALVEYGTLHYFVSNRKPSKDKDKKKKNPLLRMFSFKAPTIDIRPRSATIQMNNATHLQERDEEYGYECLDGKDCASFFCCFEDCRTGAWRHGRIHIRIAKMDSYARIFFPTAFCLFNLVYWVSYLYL
T1 sequence (P31644 32-462): as the sequence (P31644 32-462) above
T1 sequence (P28472 26-473 partner): as the sequence (P28472 26-473 partner) above
T1 sequence (P18507 40-475): as the sequence (P18507 40-475) above

For `COc1nc(-c2cccc3c2CNC3=O)ccc1NC(=O)c1c(-c2ccccc2)noc1C` [Example 97, N-(2-Methoxy-6-(1-oxoisoindolin-4-yl)pyridin-3-yl)-5-methyl-3-phenylisoxazole-4-carboxamide], the Ki [1] was 19.1 nM and the “α5-GABAAR Relative Efficacy (to DMCM), Qpatch” value (from here on “α5-GABAAR Relative Efficacy”) ([2]; Conc 3 μM) was −0.67.

In the case of `COc1nc(-c2ccc(N3CC[C@@H](O)C3)nc2)ccc1NC(=O)c1c(-c2ccccc2)noc1C` [Example 99, (R)—N-(6′-(3-Hydroxypyrrolidin-1-yl)-6-methoxy-[2,3′-bipyridin]-5-yl)-5-methyl-3-phenylisoxazole-4-carboxamide], the Ki [1] is reported as 6.7 nM and the “α5-GABAAR Relative Efficacy” value ([2]; Conc 1 μM) is reported as −0.70.

With `COc1nc(-c2cnc3cnn(C)c3c2)ccc1NC(=O)c1c(-c2ccccc2)noc1C` [Example 100, N-(2-Methoxy-6-(1-methyl-1H-pyrazolo[4,3-b]pyridin-6-yl)pyridin-3-yl)-5-methyl-3-phenylisoxazole-4-carboxamide] the Ki [1] was 3 nM and the “α5-GABAAR Relative Efficacy” value ([2]; Conc 0.3 μM) was −0.72.

For `COc1nc(-c2cnnn2C)ccc1NC(=O)c1c(-c2ccccc2)noc1C` [Example 102, N-(2-Methoxy-6-(1-methyl-1H-1,2,3-triazol-5-yl)pyridin-3-yl)-5-methyl-3-phenyl-isoxazole-4-carboxamide], the Ki [1] was 1.5 nM and the “α5-GABAAR Relative Efficacy” value ([2]; Conc 0.3 μM) was −0.79.

In the case of `CNc1cc(-c2ccc(NC(=O)c3c(-c4ccccc4)noc3C)c(OC)n2)ccn1` [Example 103, N-(6-Methoxy-2′-(methylamino)-[2,4′-bipyridin]-5-yl)-5-methyl-3-phenylisoxazole-4-carboxamide], the Ki [1] is reported as 6.6 nM and the “α5-GABAAR Relative Efficacy” value ([2]; Conc 1 μM) is reported as −0.78.

For `COc1nc(-c2ccnnc2)ccc1NC(=O)c1c(-c2ccccc2)noc1C` [Example 104, N-(2-Methoxy-6-(pyridazin-4-yl)pyridin-3-yl)-5-methyl-3-phenylisoxazole-4-carboxamide], the Ki [1] was 1.7 nM and the “α5-GABAAR Relative Efficacy” value ([2]; Conc 0.3 μM) was −0.68.

With `COc1nc(-c2cnc3c(c2)OCO3)ccc1NC(=O)c1c(-c2ccccc2)noc1C` [Example 106, N-(6-([1,3] Dioxolo[4,5-b]pyridin-6-yl)-2-methoxypyridin-3-yl)-5-methyl-3-phenylisoxazole-4-carboxamide] the Ki [1] was 11.4 nM and the “α5-GABAAR Relative Efficacy” value ([2]; Conc 3 μM) was −0.40.

In the case of `COc1nc(-c2ccc(NC(C)=O)nc2)ccc1NC(=O)c1c(-c2ccccc2)noc1C` [Example 108, N-(6′-Acetamido-6-methoxy-[2,3′-bipyridin]-5-yl)-5-methyl-3-phenylisoxazole-4-carboxamide], the Ki [1] is reported as 3.1 nM and the “α5-GABAAR Relative Efficacy” value ([2]; Conc 1 μM) is reported as −0.81.

For `COc1nc(-c2cnn(-c3ccncc3)c2)ccc1NC(=O)c1c(-c2ccccc2)noc1C` [Example 110, N-(2-Methoxy-6-(1-(pyridin-4-yl)-1H-pyrazol-4-yl)pyridin-3-yl)-5-methyl-3-phenylisoxazole-4-carboxamide], the Ki [1] was 29.1 nM and the “α5-GABAAR Relative Efficacy” value ([2]; Conc 3 μM) was −0.53.

`COc1nc(-c2ccc3c(c2)nc(C)n3C)ccc1NC(=O)c1c(-c2ccccc2)noc1C` [Example 111, N-(6-(1,2-Dimethyl-1H-benzo[d]imidazol-5-yl)-2-methoxypyridin-3-yl)-5-methyl-3-phenylisoxazole-4-carboxamide] was tested, and the Ki [1] was 13.1 nM and the “α5-GABAAR Relative Efficacy” value ([2]; Conc 3 μM) was −0.46.

For `COc1nc(-c2ccc3c(c2)COC(=O)N3)ccc1NC(=O)c1c(-c2ccccc2)noc1C` [Example 119, N-(2-Methoxy-6-(2-oxo-1,4-dihydro-2H-benzo[d] [1,3]oxazin-6-yl)pyridin-3-yl)-5-methyl-3-phenylisoxazole-4-carboxamide], the Ki [1] was 13.8 nM and the “α5-GABAAR Relative Efficacy” value ([2]; Conc 3 μM) was −0.63.

In the case of `COc1nc(-c2cnoc2)cnc1NC(=O)c1c(-c2ccccc2)noc1C` [Example 120, N-(5-Isoxazol-4-yl-3-methoxy-pyrazin-2-yl)-5-methyl-3-phenyl-isoxazole-4-carboxamide], the Ki [1] is reported as 4.6 nM and the “α5-GABAAR Relative Efficacy” value ([2]; Conc 1 μM) is reported as −0.73.

For `COc1nc(-c2ncc[nH]2)ccc1NC(=O)c1c(-c2ccccc2)noc1C` [Example 121, N-[6-(1H-Imidazol-2-yl)-2-methoxy-3-pyridyl]-5-methyl-3-phenyl-isoxazole-4-carboxamide], the Ki [1] was 2.1 nM and the “α5-GABAAR Relative Efficacy” value ([2]; Conc 0.3 μM) was −0.36.

In the case of `COc1nc(-c2ncco2)ccc1NC(=O)c1c(-c2ccccc2)noc1C` [Example 123, N-(2-Methoxy-6-oxazol-2-yl-3-pyridyl)-5-methyl-3-phenyl-isoxazole-4-carboxamide], the Ki [1] is reported as 11.8 nM and the “α5-GABAAR Relative Efficacy” value ([2]; Conc 3 μM) is reported as −0.48.

For `COc1nc(-c2cnoc2)ccc1NC(=O)c1c(C)nnn1-c1ccccc1` [Example 124, N-(6-(Isoxazol-4-yl)-2-methoxypyridin-3-yl)-4-methyl-1-phenyl-1H-1,2,3-triazole-5-carboxamide], the Ki [1] was 23.6 nM and the “α5-GABAAR Relative Efficacy” value ([2]; Conc 3 μM) was −1.40.

With `COCc1ncc(-c2ccc(NC(=O)c3c(-c4ccccc4)noc3C)c(OC)n2)cn1` [Example 125, N-[2-Methoxy-6-[2-(methoxymethyl)pyrimidin-5-yl]-3-pyridyl]-5-methyl-3-phenyl-isoxazole-4-carboxamide] the Ki [1] was 2.5 nM and the “α5-GABAAR Relative Efficacy” value ([2]; Conc 0.3 μM) was −0.84.

For `COc1ccc(-c2ccc(NC(=O)c3c(-c4ccccc4)noc3C)c(OC)n2)nn1` [Example 128, N-[2-Methoxy-6-(6-methoxypyridazin-3-yl)-3-pyridyl]-5-methyl-3-phenyl-isoxazole-4-carboxamide], the Ki [1] was 46.7 nM and the “α5-GABAAR Relative Efficacy” value ([2]; Conc 10 μM) was −0.19.

For `COc1nc(-c2cnc(C(=O)N(C)C)nc2)ccc1NC(=O)c1c(-c2ccccc2)noc1C` [Example 130, N-[6-[2-(Dimethylcarbamoyl)pyrimidin-5-yl]-2-methoxy-3-pyridyl]-5-methyl-3-phenyl-isoxazole-4-carboxamide], the Ki [1] was 2.3 nM and the “α5-GABAAR Relative Efficacy” value ([2]; Conc 0.3 μM) was −0.55.

In the case of `COc1nc(-c2ccn3nc(N(C)C)nc3c2)ccc1NC(=O)c1c(-c2ccccc2)noc1C.Cl` [Example 131, N-[6-[2-(Dimethylamino)-[1,2,4]triazolo[1,5-a]pyridin-7-yl]-2-methoxy-3-pyridyl]-5-methyl-3-phenyl-isoxazole-4-carboxamide hydrochloride], the Ki [1] is reported as 9.8 nM and the “α5-GABAAR Relative Efficacy” value ([2]; Conc 1 μM) is reported as −0.67.

For `COc1nc(-c2cncn2C)ccc1NC(=O)c1c(-c2ccccc2)noc1C` [Example 132, N-[2-Methoxy-6-(3-methylimidazol-4-yl)-3-pyridyl]-5-methyl-3-phenyl-isoxazole-4-carboxamide], the Ki [1] was 4 nM and the “α5-GABAAR Relative Efficacy” value ([2]; Conc 1 μM) was −0.52.

With `COc1nc(-c2c[nH]c(=O)c(F)c2)cnc1NC(=O)c1c(-c2ccccc2)noc1C` [Example 133, N-[5-(5-Fluoro-6-oxo-1H-pyridin-3-yl)-3-methoxy-pyrazin-2-yl]-5-methyl-3-phenyl-isoxazole-4-carboxamide] the Ki [1] was 4.1 nM and the “α5-GABAAR Relative Efficacy” value ([2]; Conc 1 μM) was −0.75.

In the case of `COc1nc(-c2cnc3cnccn23)ccc1NC(=O)c1c(-c2ccccc2)noc1C` [Example 135, N-(6-(Imidazo[1,2-a]pyrazin-3-yl)-2-methoxypyridin-3-yl)-5-methyl-3-phenylisoxazole-4-carboxamide], the Ki [1] is reported as 1 nM and the “α5-GABAAR Relative Efficacy” value ([2]; Conc 0.3 μM) is reported as −0.85.

`COc1nc(-c2cnc3ncccn23)ccc1NC(=O)c1c(-c2ccccc2)noc1C` [Example 136, N-(6-(Imidazo[1,2-a]pyrimidin-3-yl)-2-methoxypyridin-3-yl)-5-methyl-3-phenylisoxazole-4-carboxamide] was tested, and the Ki [1] was 3.3 nM and the “α5-GABAAR Relative Efficacy” value ([2]; Conc 1 μM) was −0.60.

For `COc1nc(-c2cnc3n2CCNC3)ccc1NC(=O)c1c(-c2ccccc2)noc1C.Cl` [Example 138, N-(2-Methoxy-6-(5,6,7,8-tetrahydroimidazo[1,2-a]pyrazin-3-yl)pyridin-3-yl)-5-methyl-3-phenylisoxazole-4-carboxamide hydrochloride], the Ki [1] was 3.2 nM and the “α5-GABAAR Relative Efficacy” value ([2]; Conc 1 μM) was −0.62.

In the case of `COc1nc(-n2cnc(C#N)c2)ccc1NC(=O)c1c(-c2ccccc2)noc1C` [Example 139, N-[6-(4-Cyanoimidazol-1-yl)-2-methoxy-3-pyridyl]-5-methyl-3-phenyl-isoxazole-4-carboxamide], the Ki [1] is reported as 1.9 nM and the “α5-GABAAR Relative Efficacy” value ([2]; Conc 0.3 μM) is reported as −0.90.

In the case of `COc1nc(-n2cnc(C(F)(F)F)c2)ccc1NC(=O)c1c(-c2ccccc2)noc1C` [Example 140, N-[2-Methoxy-6-[4-(trifluoromethyl)imidazol-1-yl]-3-pyridyl]-5-methyl-3-phenyl-isoxazole-4-carboxamide], the Ki [1] is reported as 5.7 nM and the “α5-GABAAR Relative Efficacy” value ([2]; Conc 1 μM) is reported as −0.79.

In the case of `CCOc1ncc(-c2cnc(NC(=O)c3c(-c4ccccc4)noc3C)c(OC)n2)cn1` [Example 142, N-[5-(2-Ethoxypyrimidin-5-yl)-3-methoxy-pyrazin-2-yl]-5-methyl-3-phenyl-isoxazole-4-carboxamide], the Ki [1] is reported as 2.9 nM and the “α5-GABAAR Relative Efficacy” value ([2]; Conc 0.3 μM) is reported as −0.85.

`CNc1ncc(-c2cnc(NC(=O)c3c(-c4ccccc4)noc3C)c(OC)n2)cn1` [Example 145, N-[3-Methoxy-5-[2-(methylamino)pyrimidin-5-yl]pyrazin-2-yl]-5-methyl-3-phenyl-isoxazole-4-carboxamide] was tested, and the Ki [1] was 0.3 nM and the “α5-GABAAR Relative Efficacy” value ([2]; Conc 0.1 μM) was −1.12.

In the case of `COc1nc(-c2ccc(NC(C)=O)nc2)cnc1NC(=O)c1c(-c2ccccc2)noc1C` [Example 147, N-[5-(6-Acetamido-3-pyridyl)-3-methoxy-pyrazin-2-yl]-5-methyl-3-phenyl-isoxazole-4-carboxamide], the Ki [1] is reported as 0.5 nM and the “α5-GABAAR Relative Efficacy” value ([2]; Conc 0.1 μM) is reported as −0.67.
